Assay results: US20060211733A1, “Methods of preventing and treating opioid bowel dysfunction” (Adolor Corporation, priority 2005, published 2006)

Tested on: opioid-induced bowel dysfunction in non-malignant pain subjects
Experiment: six-week, randomized, double-blind, placebo-controlled study of three alvimopan dosage regimens
Assay type: in vivo, human
Method: A six-week, randomize, double-blind, placebo-controlled study was conducted to evaluate three dosage regimens for [[(2S)-2-[[(3R,4R)-4-(3-hydroxyphenyl)-3,4-dimethylpiperidin-1-yl]methyl]-3-phenylpropanoyl]amino]acetic acid dihydrate (alvimopan) for the treatment of opioid-induced bowel dysfunction in non-malignant pain subjects, including an evaluation of the improvement of spontaneous bowel movement (SBM) frequency compared to placebo while maintaining an acceptable tolerability profile.
Subjects meeting the initial screening criteria for the study population, and who had been administered chronic opioid therapy for non-malignant pain, were selected.

In the case of `C[C@H]1CN(C[C@H](Cc2ccccc2)C(=O)NCC(=O)O)CC[C@@]1(C)c1cccc(O)c1.O.O` [alvimopan, [[(2S)-2-[[(3R,4R)-4-(3-hydroxyphenyl)-3,4-dimethylpiperidin-1-yl]methyl]-3-phenylpropanoyl]amino]acetic acid dihydrate], the efficacy (0.5 mg BID) is reported as “comparable to 1 mg QD or 1 mg BID”, the safety profile (0.5 mg BID) is reported as “comparable to the placebo” and the “primary and key secondary endpoints (spontaneous bowel movement frequency) compared to placebo” value (all three doses (0.5 mg BID, 1 mg QD, 1 mg BID), subjects on chronic opioid therapy) is reported as “significantly better, both clinically and statistically, than the placebo”. For the same compound, the tolerability (all treatment arms) was “well-tolerated”, the analgesic antagonism (based on changes in pain scores or opioid consumption during the study) was “no evidence of analgesic antagonism” and the “rebound post active treatment” value (non-treatment follow-up period) was “no evidence of rebound”. The tachyphylaxis (over six-week treatment period) was “no evidence of tachyphylaxis” and the “onset and duration of treatment effects” value (six-week treatment period) was “significant at week 1 and were sustained over the entire six-week treatment period”.
